Results from patent US20230074252A1, “DOSAGES AND METHODS FOR TREATING PULMONARY ARTERIAL HYPERTENSION WITH RODATRISTAT” (Altavant Sciences GmbH, priority 2020, published 2023).

Columns and labels:
CYP2C19 [1] = target: T1, CYP2C19 (Homo sapiens, UniProt P33261); experiment: In vitro CYP substrate assessment (victim potential); type: in vitro ADME
CYP2C8 [2] = target: T2, CYP2C8 (Homo sapiens, UniProt P10632); experiment: as above; type: in vitro ADME
T2 sequence (P10632 1-490): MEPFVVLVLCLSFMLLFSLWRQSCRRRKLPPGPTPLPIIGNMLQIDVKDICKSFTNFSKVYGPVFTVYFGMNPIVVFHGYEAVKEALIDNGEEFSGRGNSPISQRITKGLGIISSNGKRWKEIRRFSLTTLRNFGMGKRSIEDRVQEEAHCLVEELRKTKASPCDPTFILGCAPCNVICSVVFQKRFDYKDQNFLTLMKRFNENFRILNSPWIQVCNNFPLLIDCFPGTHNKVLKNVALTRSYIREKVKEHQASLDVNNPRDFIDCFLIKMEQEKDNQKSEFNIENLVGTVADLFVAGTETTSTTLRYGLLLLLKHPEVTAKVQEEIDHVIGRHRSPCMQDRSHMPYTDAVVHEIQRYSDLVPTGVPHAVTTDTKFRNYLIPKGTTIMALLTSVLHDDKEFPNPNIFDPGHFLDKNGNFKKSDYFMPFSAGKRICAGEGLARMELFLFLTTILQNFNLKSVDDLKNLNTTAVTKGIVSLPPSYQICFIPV

CYP3A4 [3] = target: CYP3A4 (Homo sapiens, UniProt P08684); experiment: as above; type: in vitro ADME
Plasma protein binding = type: in vitro ADME, human; conditions: for fraction unbound: human, plasma, read-out: Plasma protein binding (fraction bound) (converted)
Excerpt: This analysis is typically based on non-protein bound drug levels in plasma. Values for plasma protein binding (fraction bound) of rodatristat ethyl and rodatristat were 0.995 and 0.991, respectively.
Calculation of Cmax, u, portal uses plasma Cmax, fraction of an oral dose absorbed (Fa) and measured unbound fraction in blood. For rodatristat, experimentally derived values were used for Fa determined in a rat 14C study (20%) and in vitro binding to human plasma (99.1%) and blood:plasma distribution (RB, 0.72). Walsky et al proposed a threshold where the ratio of Cmax, u, portal/Ki of <0.1 is associated with low risk. […] In the rat, the RE:R is ˜3-fold higher in portal blood compared to the periphery.

CYP3A4 [4] = experiment: FDA guidance DDI risk assessment, perpetrator potential; parameters: species or system human; conditions: predicted @ 600 mg BID
Method: The potential for rodatristat ethyl or rodatristat to be perpetrators of drug-drug interactions was assessed across in vitro CYP and transporter studies (Tables 1-4). […] This analysis was performed to assess the potential for clinically meaningful DDIs as recommended in FDA Draft Guidance: “In Vitro Metabolism- and Transporter-Mediated Drug-Drug Interaction Studies Guidance for Industry”; October 2017 (FDA, 2017).
R1 and R3 values using free (non-protein bound) drug levels were calculated based on plasma protein binding (fraction bound, fb) of rodatristat ethyl (0.995) and rodatristat (0.991). The FDA Guidance is set forth In Vitro Metabolism- and Transporter-Mediated Drug-Drug Interaction Studies Guidance for Industry (2017). […] Parameters for the prediction are set forth below in Tables 5 and 6.

CYP2C19 [5] = target: T1, CYP2C19; experiment: Direct and time-dependent CYP inhibition, pooled human liver microsomes; type: in vitro ADME; parameters: from tissue; host or cells: pooled human liver microsomes (n=200 donors)
Method: (§1) “mM^”=millimolar. CYP induction was evaluated using cultured human hepatocytes (from 3 donors) treated once daily for 3 days with RE/R concentrations to […].
(§2) The competitive inhibition of specific CYP isoforms was investigated for RVT-1201 and KAR5417 in human liver microsomes (HLM) (XT155056). Of the […] evaluated in vitro (CYP1A2, CYP2B6, CYP2C8, CYP2C9, CYP2D6, CYP3A4, CYP3A5), RVT-1201 IC50 estimates were determined for CYP2B6, CYP2C8 and CYP3A4 only. […] For each IC50 estimate, substrate concentration and Km were used to estimate RVT-1201 and KAR5417 Ki.

CYP2C8 [6] = target: T2, CYP2C8; experiment: as above; type: in vitro ADME; parameters: from tissue; host or cells: pooled human liver microsomes (n=200 donors); conditions: for IC50: human liver microsomes, read-out: In vitro IC50, direct inhibition, CYP2C8; for Calculated R1 Value, CYP2C8: predicted @ 600 mg BID, R1=1+(Imax,unbound/Ki)
Method: as §1, §2

CYP1A2 = target: T3, CYP1A2 (Homo sapiens, UniProt P05177); experiment: as above; type: in vitro ADME; parameters: from tissue; host or cells: pooled human liver microsomes (n=200 donors)
T3 sequence (P05177 1-516): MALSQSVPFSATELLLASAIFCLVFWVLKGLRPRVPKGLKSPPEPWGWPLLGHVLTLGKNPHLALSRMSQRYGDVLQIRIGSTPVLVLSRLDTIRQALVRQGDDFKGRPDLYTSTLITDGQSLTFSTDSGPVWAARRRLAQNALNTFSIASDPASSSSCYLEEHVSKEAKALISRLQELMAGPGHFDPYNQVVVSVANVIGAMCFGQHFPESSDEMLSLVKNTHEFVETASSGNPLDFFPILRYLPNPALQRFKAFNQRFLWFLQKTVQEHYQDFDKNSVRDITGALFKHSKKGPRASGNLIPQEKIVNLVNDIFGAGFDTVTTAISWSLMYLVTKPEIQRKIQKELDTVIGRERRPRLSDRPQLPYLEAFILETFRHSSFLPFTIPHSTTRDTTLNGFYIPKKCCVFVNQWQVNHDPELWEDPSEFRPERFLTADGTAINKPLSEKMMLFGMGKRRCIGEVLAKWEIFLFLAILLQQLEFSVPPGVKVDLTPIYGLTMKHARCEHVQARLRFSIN
Method: as §1, §2

CYP2D6 = CYP2D6 (Homo sapiens, UniProt P10635); experiment: as above; type: in vitro ADME; parameters: from tissue; host or cells: pooled human liver microsomes (n=200 donors)
Method: as §1, §2

CYP2C9 = CYP2C9 (Homo sapiens, UniProt P11712); experiment: as above; type: in vitro ADME; parameters: from tissue; host or cells: pooled human liver microsomes (n=200 donors); conditions: for IC50: human liver microsomes, read-out: In vitro IC50, direct inhibition, CYP2C9
Method: as §1, §2

CYP2C9, sequence (P11712 whole entry): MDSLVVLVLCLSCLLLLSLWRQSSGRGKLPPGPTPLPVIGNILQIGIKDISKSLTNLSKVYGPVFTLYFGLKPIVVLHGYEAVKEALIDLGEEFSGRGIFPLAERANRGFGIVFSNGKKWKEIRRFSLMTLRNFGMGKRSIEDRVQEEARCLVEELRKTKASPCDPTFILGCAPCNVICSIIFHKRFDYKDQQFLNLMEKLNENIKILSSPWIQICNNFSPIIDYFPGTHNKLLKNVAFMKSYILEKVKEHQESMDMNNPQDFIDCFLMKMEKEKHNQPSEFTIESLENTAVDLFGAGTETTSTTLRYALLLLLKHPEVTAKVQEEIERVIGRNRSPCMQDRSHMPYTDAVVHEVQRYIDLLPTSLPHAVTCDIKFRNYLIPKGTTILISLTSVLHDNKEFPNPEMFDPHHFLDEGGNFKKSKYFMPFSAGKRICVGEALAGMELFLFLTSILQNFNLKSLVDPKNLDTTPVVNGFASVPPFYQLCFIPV
T1 sequence (P33261 whole entry): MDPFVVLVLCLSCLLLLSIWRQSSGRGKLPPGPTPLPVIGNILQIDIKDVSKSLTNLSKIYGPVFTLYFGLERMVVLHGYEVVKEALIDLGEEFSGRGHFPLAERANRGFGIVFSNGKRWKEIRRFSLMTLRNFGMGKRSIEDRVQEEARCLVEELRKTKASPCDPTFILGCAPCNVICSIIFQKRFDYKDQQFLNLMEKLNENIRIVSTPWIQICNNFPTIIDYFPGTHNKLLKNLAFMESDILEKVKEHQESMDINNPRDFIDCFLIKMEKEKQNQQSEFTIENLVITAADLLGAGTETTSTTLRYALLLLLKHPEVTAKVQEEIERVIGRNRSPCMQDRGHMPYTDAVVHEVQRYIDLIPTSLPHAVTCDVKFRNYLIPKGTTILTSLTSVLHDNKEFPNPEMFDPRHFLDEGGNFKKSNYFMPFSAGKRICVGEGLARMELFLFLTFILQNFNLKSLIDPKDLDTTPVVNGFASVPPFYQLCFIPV
CYP3A4 (Homo sapiens, UniProt P08684), sequence (P08684 whole entry): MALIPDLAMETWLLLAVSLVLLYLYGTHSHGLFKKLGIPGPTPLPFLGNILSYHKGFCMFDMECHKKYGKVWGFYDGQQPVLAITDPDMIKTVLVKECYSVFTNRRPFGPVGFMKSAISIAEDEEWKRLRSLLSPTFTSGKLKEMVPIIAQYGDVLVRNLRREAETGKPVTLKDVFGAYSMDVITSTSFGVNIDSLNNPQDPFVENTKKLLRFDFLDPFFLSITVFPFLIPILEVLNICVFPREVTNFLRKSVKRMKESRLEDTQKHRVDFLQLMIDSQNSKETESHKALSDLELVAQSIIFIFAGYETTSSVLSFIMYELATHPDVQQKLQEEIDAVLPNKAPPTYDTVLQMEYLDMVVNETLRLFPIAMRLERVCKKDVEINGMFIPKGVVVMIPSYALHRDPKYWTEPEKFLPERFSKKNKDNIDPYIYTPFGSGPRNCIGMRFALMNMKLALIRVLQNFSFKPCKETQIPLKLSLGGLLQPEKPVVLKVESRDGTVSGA
CYP2D6, sequence (P10635 whole entry): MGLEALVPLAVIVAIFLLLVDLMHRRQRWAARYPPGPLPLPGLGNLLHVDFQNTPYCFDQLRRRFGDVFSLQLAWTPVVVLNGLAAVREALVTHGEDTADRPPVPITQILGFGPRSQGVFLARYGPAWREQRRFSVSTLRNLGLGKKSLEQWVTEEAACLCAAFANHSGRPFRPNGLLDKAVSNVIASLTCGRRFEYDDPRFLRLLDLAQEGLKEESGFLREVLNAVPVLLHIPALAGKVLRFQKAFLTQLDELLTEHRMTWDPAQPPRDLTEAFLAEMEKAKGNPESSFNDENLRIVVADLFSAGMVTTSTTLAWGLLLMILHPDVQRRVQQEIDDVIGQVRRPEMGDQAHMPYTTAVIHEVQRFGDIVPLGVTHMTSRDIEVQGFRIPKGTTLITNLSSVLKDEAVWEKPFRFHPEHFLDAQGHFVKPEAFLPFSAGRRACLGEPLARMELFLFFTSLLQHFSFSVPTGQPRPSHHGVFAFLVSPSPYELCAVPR

SMILES | In vitro substrate? CYP2C19 (CYP2C19 [1]) | In vitro substrate? CYP2C8 (CYP2C8 [2]) | In vitro substrate? CYP3A4 (CYP3A4 [3]) | fraction unbound (Plasma protein binding) | Potential for interaction (perpetrator), CYP3A4 (CYP3A4 [4]) | IC50 (CYP2C19 [5]; human liver microsomes, read-out: In vitro IC50, direct inhibition, CYP2C19) [nM] | IC50 (CYP2C8 [6]) [nM] | Calculated R1 Value, CYP2C8 (CYP2C8 [6]) | IC50 (CYP1A2; human liver microsomes, read-out: In vitro IC50, direct inhibition, CYP1A2) [nM] | IC50 (CYP2D6; human liver microsomes, read-out: In vitro IC50, direct inhibition, CYP2D6) [nM] | Direct inhibition of CYP2C9 (in words) (CYP2C9) | IC50 (CYP2C9) [nM] | In vitro binding to human plasma (Plasma protein binding) [%] | Direct inhibition of CYP2C19 (in words) (CYP2C19 [5]) | Ki (CYP2C8 [6]; equivalent to IC50/2) [nM] | Calculated R1 Value, CYP2C8 (CYP2C8 [6]; listed as rodatristat) | Direct inhibition of CYP1A2 (in words) (CYP1A2) | Direct inhibition of CYP2D6 (in words) (CYP2D6) | inhibition at 30 µM (CYP2C9; human, pooled human liver microsomes, 30 μM, range given across CYPs 2B6, 2C9 and 3A4/5) [%]
CCOC(=O)[C@@H]1CC2(CCN(c3cc(O[C@H](c4ccc(Cl)cc4-c4ccccc4)C(F)(F)F)nc(N)n3)CC2)CN1 [Rodatristat ethyl, (S)-ethyl 8-(2-amino-6-((R)-1-(5-chloro-[1,1′-biphenyl]-2-yl)-2,2,2-trifluoroethoxy)pyrimidin-4-yl)-2,8-diazaspiro[4.5]decane-3-carboxylate] | No | No | No | 0.005 | Yes | > 30000 | 2800 | <1.02 | > 30000 | > 30000 | Neither rodatristat ethyl nor rodatristat inhibit | > 30000 |  |  |  |  |  |  | 
Nc1nc(O[C@H](c2ccc(Cl)cc2-c2ccccc2)C(F)(F)F)cc(N2CCC3(CC2)CN[C@H](C(=O)O)C3)n1 [Rodatristat, (S)-8-(2-amino-6-((R)-1-(5-chloro-[1,1′-biphenyl]-2-yl)-2,2,2-trifluoroeth-oxy)pyrimidin-4-yl)-2,8-diazaspiro[4.5]decane-3-carboxylic acid] | No | No | No | 0.009 | Yes |  | 2800 | <1.02 |  |  | Neither rodatristat ethyl nor rodatristat inhibit | > 30000 | 99.1 | did not inhibit | 1400 | <1.02 | did not inhibit | did not inhibit | 27 to 45
